System: NQO1 specific enzyme activity in BEAS-2B cells (marker for NRF2 activation)
Assay: BEAS-2B NQO1 MTT Assay
Type: cell-based
Conditions: Homo sapiens, BEAS-2B, 48 h, NQO1 specific activity induction, 48 hours with compound
Source text: NAD(P)H:quinone oxidoreductase 1 (NQO1), also called DT diaphorase, is a homodimeric FAD-containing enzyme that catalyzes obligatory NAD(P)H-dependent two-electron reductions of quinones and protects cells against the toxic and neoplastic effects of free radicals and reactive oxygen species arising from one-electron reductions. The transcription of NQO1 is finely regulated by NRF2, and thus NQO1 activity is a good marker for NRF2 activation. On day one, frozen BEAS-2B cells (ATCC) were thawed in a water bath, counted, and re-suspended at a concentration of 250,000 cells/mL. Fifty microliters of cells were plated in 384 well black clear-bottomed plates. Plates were incubated at 37° C., 5% CO2 overnight. On day two, plates were centrifuged and 50 nL of compound or controls were added to the cells. Plates were then incubated at 37° C., 5% CO2 for 48 hours. On day four, medium was aspirated from the plate and crude cell lysates were made by adding 13 uL of 1× Cell Signaling Technologies lysis buffer with 1 Complete, Mini, EDTA-free Protease Inhibitor Tablet (Roche) for each 10 mL of lysis buffer. After lysis plates were incubated for 20 minutes at room temperature. Two microliters of lysate were removed for use in Cell Titer Glo assay (Promega) and MTT cocktail was prepared (Prochaska et. al. 1998) for measurement of NQO1 activity. Fifty microliters of MTT cocktail is added to each well, plate is centrifuged, and analyzed on an Envision plate reader (Perkin Elmer) using Absorbance 570 nm label for 30 minutes. Product formation was measured kinetically and the pEC50 of NQO1 specific activity induction was calculated by plotting the change in absorbance (Delta OD/min) versus the log of compound concentration followed by 3-parameter fitting.
pEC50 is the negative log of the EC50.
EC50s<1 nM (+++++), EC50s 1 nM-10 nM (++++), EC50s 10 nM-100 nM (+++), EC50s 100 nM-1 uM (++), EC50s 1 uM-10 uM (+), EC50s>10 uM (−), or were not determined (ND).

| SMILES | EC50 |
| --- | --- |
| CC[C@@H]1CN(Cc2cc([C@@H](CC(=O)O)c3ccc4c(nnn4CC)c3C)sc2Cl)S(=O)(=O)c2cnccc2O1 [Example 1, (S)-3-(5-Chloro-4-(((R)-4-ethyl-1,1-dioxido-3,4-dihydro-2H-pyrido[4,3-b][1,4,5]oxathiazepin-2-yl)methyl)thiophen-2-yl)-3-(1-ethyl-4-methyl-1H-benzo[d][1,2,3]triazol-5-yl)propanoic acid] | 100 to 1000 nM |
| CC[C@@H]1CN(Cc2cc([C@@H](CC(=O)O)c3ccc4c(nnn4CC)c3C)sc2Cl)S(=O)(=O)c2cccnc2O1 [Example 2, (S)-3-(5-Chloro-4-(((R)-4-ethyl-1,1-dioxido-3,4-dihydro-2H-pyrido[2,3-b][1,4,5]oxathiazepin-2-yl)methyl)thiophen-2-yl)-3-(1-ethyl-4-methyl-1H-benzo[d][1,2,3]triazol-5-yl)propanoic acid] | 1000 to 10000 nM |
| CC[C@@H]1CN(Cc2cc([C@@H](c3ccc4c(nnn4CC)c3C)C(C)(C)C(=O)O)sc2Cl)S(=O)(=O)c2ccccc2O1 [Example 3, (S)-3-(5-Chloro-4-(((R)-4-ethyl-1,1-dioxido-3,4-dihydro-2H-benzo[b][1,4,5]oxathiazepin-2-yl)methyl)thiophen-2-yl)-3-(1-ethyl-4-methyl-1H-benzo[d][1,2,3]triazol-5-yl)-2,2-dimethylpropanoic acid] | < 1 nM |
| CC[C@@H]1CN(Cc2cc([C@H](c3ccc4c(nnn4CC)c3C)C(C)(C)C(=O)O)sc2Cl)S(=O)(=O)c2ccccc2O1 [Example 4, (R)-3-(5-Chloro-4-(((R)-4-ethyl-1,1-dioxido-3,4-dihydro-2H-benzo[b][1,4,5]oxathiazepin-2-yl)methyl)thiophen-2-yl)-3-(1-ethyl-4-methyl-1H-benzo[d][1,2,3]triazol-5-yl)-2,2-dimethylpropanoic acid] | 100 to 1000 nM |
| CC[C@@H]1CN(Cc2cc([C@H](CC(=O)O)c3ccc4c(nnn4CC)c3C)sc2Cl)S(=O)(=O)c2ccccc2O1 [Example 5, (R)-3-(5-Chloro-4-(((R)-4-ethyl-1,1-dioxido-3,4-dihydro-2H-benzo[b][1,4,5]oxathiazepin-2-yl)methyl)thiophen-2-yl)-3-(1-ethyl-4-methyl-1H-benzo[d][1,2,3]triazol-5-yl)propanoic acid] | 10 to 100 nM |
| CC[C@@H]1CN(Cc2cc([C@H](CC(=O)O)c3ccc4c(nnn4CC)c3C)sc2Cl)S(=O)(=O)c2cccnc2O1 [Example 6, (R)-3-(5-Chloro-4-(((R)-4-ethyl-1,1-dioxido-3,4-dihydro-2H-pyrido[2,3-b][1,4,5]oxathiazepin-2-yl)methyl)thiophen-2-yl)-3-(1-ethyl-4-methyl-1H-benzo[d][1,2,3]triazol-5-yl)propanoic acid] | 10 to 100 nM |
| CC[C@@H]1CN(Cc2cc([C@@H](c3ccc4c(nnn4CC)c3C)C(C)(C)C(=O)O)sc2C)S(=O)(=O)c2cccnc2O1 [Example 7, (S)-3-(4-(((R)-4-Ethyl-1,1-dioxido-3,4-dihydro-2H-pyrido[2,3-b][1,4,5]oxathiazepin-2-yl)methyl)-5-methylthiophen-2-yl)-3-(1-ethyl-4-methyl-1H-benzo[d][1,2,3]triazol-5-yl)-2,2-dimethylpropanoic acid] | < 1 nM |
| CCn1nnc2c(C)c([C@H](c3cc(CN4CC(C)(C)Oc5ncccc5S4(=O)=O)c(C)s3)C(C)(C)C(=O)O)ccc21 [Example 8, (S)-3-(4-((4,4-Dimethyl-1,1-dioxido-3,4-dihydro-2H-pyrido[2,3-b][1,4,5]oxathiazepin-2-yl)methyl)-5-methylthiophen-2-yl)-3-(1-ethyl-4-methyl-1H-benzo[d][1,2,3]triazol-5-yl)-2,2-dimethylpropanoic Acid] | 1 to 10 nM |
| CC[C@@H]1CN(Cc2cc([C@@H](c3ccc4c(nnn4CC)c3C)C(C)(C)C(=O)O)sc2C)S(=O)(=O)c2cnccc2O1 [Example 9, (S)-3-(4-(((R)-4-Ethyl-1,1-dioxido-3,4-dihydro-2H-pyrido[4,3-b][1,4,5]oxathiazepin-2-yl)methyl)-5-methylthiophen-2-yl)-3-(1-ethyl-4-methyl-1H-benzo[d][1,2,3]triazol-5-yl)-2,2-dimethylpropanoic Acid] | < 1 nM |
| CC[C@@H]1CN(Cc2cc([C@@H](c3ccc4c(nnn4CC)c3C)C(C)(C)C(=O)O)sc2C)S(=O)(=O)c2ccccc2O1 [Example 10, (S)-3-(4-(((R)-4-Ethyl-1,1-dioxido-3,4-dihydro-2H-benzo[b][1,4,5]oxathiazepin-2-yl)methyl)-5-methylthiophen-2-yl)-3-(1-ethyl-4-methyl-1H-benzo[d][1,2,3]triazol-5-yl)-2,2-dimethylpropanoic Acid] | < 1 nM |
| CC[C@@H]1CN(Cc2cc([C@H](c3ccc4c(nnn4CC)c3C)C(C)(C)C(=O)O)sc2C)S(=O)(=O)c2ccccc2O1 [Example 11, (R)-3-(4-(((R)-4-Ethyl-1,1-dioxido-3,4-dihydro-2H-benzo[b][1,4,5]oxathiazepin-2-yl)methyl)-5-methylthiophen-2-yl)-3-(1-ethyl-4-methyl-1H-benzo[d][1,2,3]triazol-5-yl)-2,2-dimethylpropanoic Acid] | 10 to 100 nM |
| CCC1CCN(Cc2nccn2Cc2cc([C@@H](c3ccc4c(nnn4CC)c3C)C(C)(C)C(=O)O)sc2C)CC1 [Example 12, (S)-3-(1-Ethyl-4-methyl-1H-benzo[d][1,2,3]triazol-5-yl)-3-(4-((2-((4-ethylpiperidin-1-yl)methyl)-1H-imidazol-1-yl)methyl)-5-methylthiophen-2-yl)-2,2-dimethylpropanoic acid] | 1 to 10 nM |
| CCn1nnc2c(C)c([C@H](c3cc(CN4CC(=O)N(C)CC(C)(C)C4)c(C)s3)C(C)(C)C(=O)O)ccc21 [Example 15, (S)-3-(1-Ethyl-4-methyl-1H-benzo[d][1,2,3]triazol-5-yl)-2,2-dimethyl-3-(5-methyl-4-((4,6,6-trimethyl-3-oxo-1,4-diazepan-1-yl)methyl)thiophen-2-yl)propanoic Acid] | 1 to 10 nM |
| CCn1nnc2c(C)c([C@H](c3cc(CN4C[C@H](C)Cc5ncccc5S4(=O)=O)c(C)s3)C(C)(C)C(=O)O)ccc21 [Example 16, (S)-3-(1-Ethyl-4-methyl-1H-benzo[d][1,2,3]triazol-5-yl)-2,2-dimethyl-3-(5-methyl-4-(((R)-4-methyl-1,1-dioxido-4,5-dihydropyrido[2,3-f][1,2]thiazepin-2(3H)-yl)methyl)thiophen-2-yl)propanoic Acid] | 1 to 10 nM |
| CCn1nnc2c(C)c([C@H](c3cc(CN4C[C@H](C)Cc5ccccc5S4(=O)=O)c(C)s3)C(C)(C)C(=O)O)ccc21 [Example 17, (S)-3-(1-Ethyl-4-methyl-1H-benzo[d][1,2,3]triazol-5-yl)-2,2-dimethyl-3-(5-methyl-4-(((R)-4-methyl-1,1-dioxido-4,5-dihydrobenzo[f][1,2]thiazepin-2(3H)-yl)methyl)thiophen-2-yl)propanoic Acid] | 1 to 10 nM |

Same assay, conditions: NQO1 specific activity induction, 48 hours with compound

| SMILES | EC50 |
| --- | --- |
| CC[C@@H]1CN(Cc2nc(C(c3ccc4c(nnn4CC)c3C)C(C)(C)C(=O)O)sc2C)S(=O)(=O)c2ccccc2O1 (single isomer, unassigned; isomer 1) [Example 13, (R or S)-3-(4-(((R)-4-Ethyl-1,1-dioxido-3,4-dihydro-2H-benzo[b][1,4,5]oxathiazepin-2-yl)methyl)-5-methylthiazol-2-yl)-3-(1-ethyl-4-methyl-1H-benzo[d][1,2,3]triazol-5-yl)-2,2-dimethylpropanoic Acid Isomer 1] | 1 to 10 nM |
| CC[C@@H]1CN(Cc2cc(C(CC(=O)O)c3ccc4c(nnn4CC)c3C)sc2C)S(=O)(=O)c2ccccc2O1 (single isomer, unassigned; isomer 1) [Example 20, (R or S)-3-(4-(((R)-4-Ethyl-1,1-dioxido-3,4-dihydro-2H-benzo[b][1,4,5]oxathiazepin-2-yl)methyl)-5-methylthiophen-2-yl)-3-(1-ethyl-4-methyl-1H-benzo[d][1,2,3]triazol-5-yl)propanoic acid Isomer 1] | 10 to 100 nM |
| CC[C@@H]1CN(Cc2nc(C(c3ccc4c(nnn4CC)c3C)C(C)(C)C(=O)O)sc2C)S(=O)(=O)c2ccccc2O1 (single isomer, unassigned; isomer 2) [Example 14, (R or S)-3-(4-(((R)-4-Ethyl-1,1-dioxido-3,4-dihydro-2H-benzo[b][1,4,5]oxathiazepin-2-yl)methyl)-5-methylthiazol-2-yl)-3-(1-ethyl-4-methyl-1H-benzo[d][1,2,3]triazol-5-yl)-2,2-dimethylpropanoic Acid Isomer 2] | 10 to 100 nM |
| CC[C@@H]1CN(Cc2cc(C(CC(=O)O)c3ccc4c(nnn4CC)c3C)sc2C)S(=O)(=O)c2ccccc2O1 (single isomer, unassigned; isomer 2) [Example 21, (R or S)-3-(4-(((R)-4-Ethyl-1,1-dioxido-3,4-dihydro-2H-benzo[b][1,4,5]oxathiazepin-2-yl)methyl)-5-methylthiophen-2-yl)-3-(1-ethyl-4-methyl-1H-benzo[d][1,2,3]triazol-5-yl)propanoic Acid Isomer 2] | 100 to 1000 nM |
